Experimental data from patent US6610681B1, “Neurotherapeutic clavulanate composition and method” (Revaax Pharmaceuticals, LLC, priority 1999, dated 2003).
Entries after “also recorded” stand apart in the source; their conditions may differ.

What was measured:
male golden hamsters = assay: resident/intruder paradigm of offensive aggression; format: in vivo, hamster
Description: Agonistic behavior can be classified as either offensive or defensive aggression (Blanchard and Blanchard, 1977; Adams, […]; Albert and Walsh, 1984). Offensive aggression is characterized by an aggressor initiating an attack on an opponent; while, defensive aggression lacks active approach. Both types of aggression have their own unique neurobehavioral systems. The stimuli that elicit offensive and defense attack are different, as are the sequences of behaviors that accompany each agonistic response. […] Offensive aggression is easily studied using male golden hamsters tested in a resident/intruder paradigm, an established model of offensive aggression (Ferris and Potegal 1988) in the context of defending the home burrow. Placing an unfamiliar male hamster into the home cage of another male hamster elicits a well-defined sequence of agonistic behaviors from the resident that includes offensive aggression.
Hamsters are nocturnal and as such all behavioral tests were performed during the first four hrs of the dark phase under dim red illumination. The resident was scored for offensive aggression, e.g., latency to bite the intruder, the total number of bites, total contact time with the intruder and flank marking over a 10 min test period (Ferris and Potegal, 1988). Flank marking is a form of olfactory communication in which a hamsters arches its back and rubs pheromone producing flank glands against objects in the environment (Johnston, 1986).
Five male golden hamsters (130-140 g) were given IP injections of CLAV (200 μg/kg) and saline vehicle in a volume of ca. 0.2 ml. […] Vehicle and CLAV treatments were counter balanced and randomized so all five animals received each treatment separated by at least 48 hrs. Animals were tested 90 min after treatment over a 10 min observation period. Latencies and contact time were analyzed with a two-way ANOVA. Non-parametric data, i.e., number of bites and flank marks were analyzed by Wilcoxon matched-pairs signed-ranks test.
The animals tested in this study were those used in Section IX. After the seed finding assay, beta-NAAG (n=6) and saline vehicle (n=6) treated animals remained in their home cage and were presented with a smaller, male intruder. The resident was scored for latency to bite, bites, contact time and flank marking over a 10 min observation period. Latency to bite and contact time between treatments were compared with Student t-tests. Non-parametric measures of bites and flank marks for beta-NAAG vs vehicle were compared with Mann-Whitney.

[1] = test system: male Syrian golden hamsters; assay: golden hamster seed finding model of anxiety; format: in vivo, Mesocricetus auratus
Description: Clavulanic acid (CLAV) is structurally similar to the beta-lactam antibiotics. A most robust and simple bioassay for screening beta-lactams for CNS activity is the golden hamster seed finding model of anxiety. Briefly, hamsters are deprived of food overnight. The following day they are exposed to the additional stress of being taken from their home cage and placed in a novel environment for a few minutes. This manipulation stimulates the release of the stress hormone cortisol (FIG. 13). During their absence from the home cage, sunflower seeds are hidden under the bedding in one of the corners. When returned to the home cage, hamsters routinely scramble along the walls for 1-2 min before settling down, locating and eating the seeds. However, animals treated with the benzodiazepine anxiolytic chlordiazepoxide find seeds in less than 10 sec.
Male, Syrian golden hamsters (Mesocricetus auratus) (120-130 g) obtained from Harlan Sprague-Dawley Laboratories (Indianapolis, Ind.) were housed individually in Plexiglas cages (24 cm×24 cm×20 cm), maintained on a reverse light:dark cycle (14L: 10D; lights on at 19:00 hr) and provided food and water ad libitum. A range of concentrations of CLAV (saline vehicle, 0.1, 1.0, 10, 100 1,000 ng/kg) were tested in six groups of hamsters (4-8/group)(FIG. 1). All tests were conducted during the dark phase of the circadian cycle under dim red illumination. Prior to testing all animals were fasted for 20-24 hrs. Ninety min after intraperitoneal (IP) injection of drug, animals were taken from their home cage and placed into a holding cage for 2 min. During their absence, six sunflower seeds were buried under the bedding in one corner of their home cage. Animals were placed back into their home cage randomly facing any one of the empty corners and timed for their latency to find the seeds in a five min observation period. Latency times were analyzed with a one-way ANOVA followed by Scheffe's post hoc tests. Assumption of equal variances was tested (Hartley's F-max=2.1 p>0.05)
It was hypothesized that CLAV functioned as an anxiolytic in the seed finding assay by blocking NAALADase activity in the brain. If this notion were true then it would be predicted that drugs known to block NAALADase should also enhance seed finding. To this end, animals were treated with N-acetyl-beta-aspartyl-glutamic acid (beta-NAAG), a competitive inhibitor of NAALADase (Serval et al., 1992) and tested in the seed finding model of anxiety. The study was similar to that outlined in Section I with one notable exception. […] Beta-NAAG (FW 304) was given in a dose of 3 ng in a volume of 1 μl saline ICV. The average adult hamster brain weights ca. 1.2 g of which 22% is extracellular fluid. The estimated beta-NAAG concentration was 11 ng/ml or 36 nM.
Two groups of six animals each were fasted overnight as previously described and tested the following day. One group was treated with beta-NAAG and the other saline vehicle and one hr later timed for latency to find the hidden sunflower seeds. A Student t-test for unpaired data was used for statistical comparisons.

neurogenic NAALADase = assay: animal tests of neuroactivity, effective dose; format: in vivo, hamsters and other test species

| SMILES | aggression (male golden hamsters; i.p. at 50 micrograms/kg, hamster) | change of seed finding time ([1]; dose not given) | dose exhibiting significant dose responsive neuroactivity (neurogenic NAALADase; administered parenterally) | threshold effective dose (neurogenic NAALADase; administered parenterally) | effective minimum neurogenic protease inhibiting concentration in the brain (neurogenic NAALADase; based on animal test data and known brain distribution) | minimum effective dose (neurogenic NAALADase; parenterally, hamsters and other test species) | antiaggressive properties (summary) (male golden hamsters; 200 μg/kg) | contact time with the intruder (male golden hamsters; 200 μg/kg IP, 90 min) | flank marking behavior (male golden hamsters; 200 μg/kg IP, 90 min) | latency to bite the intruder (male golden hamsters; 200 μg/kg IP, 90 min, trend toward significance) | median number of bites (male golden hamsters; 200 μg/kg IP, 90 min, vehicle thirteen) | aggressive behavior, pilot studies (male golden hamsters; IP at 1.0 μg/kg) | latency to find the sunflower seeds vs vehicle ([1]; 1 ng/kg IP, 90 min) | estimated concentration in extracellular water at the 10 ng/kg dose ([1]; 1.25 ng in 27.5 ml) | effective dose (maximal efficacy) in the seed finding test ([1]; IP) | latency to find the sunflower seeds ([1]; doses of 10 ng and above, IP, 90 min, vehicle 104 sec) | estimated concentration in the brain at the 10 ng/kg dose ([1]; from CSF/plasma ratio 0.25) | dose effective to inhibit neurogenic NAALADase (neurogenic NAALADase; i.p.) | dose showing activity similar to moxalactam (aggression, spatial learning, anxiolytic) (neurogenic NAALADase; i.p.) | dose exhibiting dose responsive neuroactivity (neurogenic NAALADase; levels as low as) |
| --- | --- | --- | --- | --- | --- | --- | --- | --- | --- | --- | --- | --- | --- | --- | --- | --- | --- | --- | --- | --- |
| CO[C@@]1(NC(=O)C(C(=O)O)c2ccc(O)cc2)C(=O)N2C(C(=O)O)=C(CSc3nnnn3C)CO[C@@H]21 (stereo partly drawn) [Moxalactam, 7-β-[2-carboxy-2-(4-hydroxyphenyl)acetamido]-7α-methoxy-3-[[(1-methyl-1H-tetrazol-5-yl)thio]methyl]-1-oxa-1-dethia-3-cephem-4-carboxylic acid] | inhibits aggression in hamster | reduction in seed finding time from minutes to seconds | about 50 μg/kg of body weight | about 50 βg/kg of body weight | about 30 nM | about 50 micrograms per kg of body weight |  |  |  |  |  |  |  |  |  |  |  |  |  |  |
| O=C(O)[C@H]1/C(=C/CO)O[C@@H]2CC(=O)N21 [CLAV, clavulanic acid] |  |  |  |  |  |  | modest antiaggressive or serenic-like properties | no significant main effect for drug treatment | unaffected; also recorded: no significant effect of drug treatment | no significant main effect for drug treatment | six | no effect on aggressive behavior | not significantly different from vehicle control | 0.045 ng/ml and about 200 pM | 0.01 µg/kg | less than 8.0 sec | around 50 pM | less than 1 microgram per kilogram of body weight | less than 1 microgram/kg | 0.01 µg/kg |
